This note sets out measurements from US12409238B2, “Silicone-based dyes with short wavelength infrared absorption and emission and methods for making and using the same” (UNIVERSITY OF MISSISSIPPI, priority 2021, dated 2025).

A short description of series [1]: Emission studies (SWIR emission spectra, 980 nm excitation). The conditions noted are these: organic solvent (dichloromethane) / water when encapsulated in a polymer; SiRos1 in DCM (FIG. 13). Type of series: physicochemical. Here is the method: 0.1 mg of silicone-based compound was combined with 10 mg DSPE-mPEG2000 (1% loading of dye by mass) in 3 mL of dichloromethane (DCM) in a 10 mL scintillation vial. The solution was vortexed for 10 seconds to homogenously mix the components. DCM was evaporated from the solution on a rotary evaporator at 50° C. until the solution forms a thin paste around the vial. Subsequently, the vial was placed on high vacuum for a half an hour to remove any residual DCM. Next, 3 mL of D2O was added and the resulting mixture was sonicated for one minute with gentle swirling to dissolve the polymer and dye together. The mixture was syringe filtered (0.45 μm) to remove any unencapsulated compound.
The emission spectra of the dyes were recorded from 1000-2500 nm using a liquid nitrogen cooled InAs fluorimeter from Horiba. A 980 nm DPSS (diode pumped solid state laser, max power 2 W) laser was used as the excitation source and the chopper signal was split from the chopper control to the lock-in-amplifier as a reference signal and the trigger signal to the laser controller. All studies were performed at 1e-5 M in DCM or 0.1 mg of dye per 3 mL D2O solution (for D2O, the dyes were solubilized in a commercially available DSPE-mPEG2000 nanoparticle, preparation previously supplied).

Series [2] in a line: Stability study: half-life in neutral aqueous solutions. It is filed as physicochemical. The conditions noted are these: xylyl substituted derivatives. From the text: The introduction of the meta-xylyl ring on the silicon-rosindolizine bridge as found to impart substantial stability compared to a tolyl ring on the silicon-rosindolizine bride. […] This increased stability is critically important to some biological imaging applications. The meta-xylyl substituted derivative retain very similar spectral properties to the tolyl derivatives with absorption and emission observed in the SWIR region. […] Application in night vision, solar cells, and photodetectors are also possible with materials absorbing in this spectral region. […] The quantum yield is near 0.01-0.05% in these environments with peak emission of SiRos1 at ˜1350 nm (FIG. 13) and peak emission of SiRos2>1550 nm.

Regarding `CCCCC(CC)C[Si]1(CC(CC)CCCC)c2cc(-c3c(-c4ccccc4)c(C)c4ccccn34)ccc2C(c2c(C)cccc2C)=c2cc/c(=C3\C(c4ccccc4)=C(C)c4cccc[n+]43)cc21.[O-][Cl+3]([O-])([O-])[O-]` (centres unmarked) [SiRos1, (Z)-3-(10-(2,6-dimethylphenyl)-5,5-bis(2-ethylhexyl)-7-(1-methyl-2-phenylindolizin-3-yl)dibenzo[b,e]silin-3(5H)-ylidene)-1-methyl-2-phenyl-3H-indolizin-4-ium perchlorate], the peak emission in series [1] is reported as approximately 1350 nm. For the same compound, the half-life result in series [2] was “longer than a week”.
For the compound `CCCCC(CC)CC1=C(c2ccccc2)/C(=c2\ccc3c(c2)[Si](CC(CC)CCCC)(CC(CC)CCCC)c2cc(-c4c(-c5ccccc5)c(CC(CC)CCCC)c5cc(-c6ccc(N(C)C)cc6)ccn45)ccc2C=3c2c(C)cccc2C)[n+]2ccc(-c3ccc(N(C)C)cc3)cc21.[O-][Cl+3]([O-])([O-])[O-]` (centres unmarked) [SiRos2, (Z)-7-(4-(dimethylamino)phenyl)-3-(7-(7-(4-(dimethylamino)phenyl)-1-(2-ethylhexyl)-2-phenylindolizin-3-yl)-10-(2,6-dimethylphenyl)-5,5-bis(2-ethylhexyl)dibenzo[b,e]silin-3(5H)-ylidene)-1-(2-ethylhexyl)-2-phenyl-3H-indolizin-4-ium perchlorate], the peak emission in series [1] is more than 1550 nm. In addition, the half-life result in series [2] is reported as “longer than a week”.
Consider `CCCCC(CC)C[Si]1(CC(CC)CCCC)c2cc(-c3c(-c4ccccc4)c(-c4ccc(N(C)C)cc4)c4cc(-c5ccc(N(C)C)cc5)ccn34)ccc2C(c2c(C)cccc2C)=c2cc/c(=C3\C(c4ccccc4)=C(c4ccc(N(C)C)cc4)c4cc(-c5ccc(N(C)C)cc5)cc[n+]43)cc21.[O-][Cl+3]([O-])([O-])[O-]` (centres unmarked) [SiRos3, (Z)-3-(7-(1,7-bis(4-(dimethylamino)phenyl)-2-phenylindolizin-3-yl)-10-(2,6-dimethylphenyl)-5,5-bis(2-ethylhexyl)dibenzo[b,e]silin-3(5H)-ylidene)-1,7-bis(4-(dimethylamino)phenyl)-2-phenyl-3H-indolizin-4-ium perchlorate], for which, in series [2], the half-life entry is given as “longer than a week”.
